Measurements published in patent US6930114B2, “Pyrrolo (2.1a)dihydroisoquinolines and their use as phosphodiesterase 10a inhibitors” (Bayer Pharmaceuticals Corporation, priority 2000, dated 2005).
Like-named read-outs stand apart in the source and are kept apart here.

What was measured:
[1] = molecular target: T1, PDE 10a (Homo sapiens, UniProt Q9Y233); experiment: In vitro enzyme inhibition assay (3H-cAMP scintillation proximity assay); assay type: biochemical; details: full-length recombinant PDE 10a, Sf9 cell lysate
T1 construct: Full-length recombinant PDE 10a was expressed in Sf9 insect cells; made in house; host or cells: Sf9 insect cells (Bac-to-Bac baculovirus system); crude lysate supernatant used
T1 sequence (Q9Y233 1-779 isoform Q9Y233-1): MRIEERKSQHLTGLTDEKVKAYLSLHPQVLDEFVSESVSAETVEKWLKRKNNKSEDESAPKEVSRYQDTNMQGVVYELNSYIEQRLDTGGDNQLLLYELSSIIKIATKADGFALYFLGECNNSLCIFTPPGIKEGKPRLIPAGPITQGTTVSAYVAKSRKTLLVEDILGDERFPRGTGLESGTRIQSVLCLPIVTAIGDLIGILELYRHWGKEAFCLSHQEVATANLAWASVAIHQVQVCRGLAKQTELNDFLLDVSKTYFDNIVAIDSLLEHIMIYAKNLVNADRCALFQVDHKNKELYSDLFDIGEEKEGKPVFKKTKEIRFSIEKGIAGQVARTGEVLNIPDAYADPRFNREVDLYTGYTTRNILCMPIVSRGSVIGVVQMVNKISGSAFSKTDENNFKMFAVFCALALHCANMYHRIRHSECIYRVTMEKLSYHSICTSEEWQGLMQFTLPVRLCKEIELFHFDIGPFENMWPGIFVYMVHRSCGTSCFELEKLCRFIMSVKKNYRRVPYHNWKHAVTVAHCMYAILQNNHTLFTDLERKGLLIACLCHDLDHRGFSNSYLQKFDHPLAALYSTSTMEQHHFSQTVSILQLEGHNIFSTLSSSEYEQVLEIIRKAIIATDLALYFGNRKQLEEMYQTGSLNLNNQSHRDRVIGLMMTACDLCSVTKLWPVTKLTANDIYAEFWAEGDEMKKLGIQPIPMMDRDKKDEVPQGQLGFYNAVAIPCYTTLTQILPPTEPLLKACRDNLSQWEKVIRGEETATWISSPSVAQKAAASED
Description: Full-length recombinant PDE 10a was expressed in Sf9 insect cells (Invitrogen, Carlsbad, Calif., U.S.A.) using the Bac-to-Bac™ Baculovirus Expression System (Life Technologies, Gaithersburg, Md., U.S.A.). 48 hours post infection, cells were harvested and resuspended in 20 mL (per 1 L culture) Lysis Buffer (50 mM Tris-HCl, pH 7.4, 50 mM NaCl, 1 mM MgCl2, 1.5 mM EDTA, 10% glycerol plus 20 μL Protease Inhibitor Cocktail Set III [CalBiochem, La Jolla, Calif., U.S.A.]). Cells were sonicated at 4° C. for 1 minute and centrifuged at 10,000 RPM for 30 minutes at 4° C. Supernatant was removed and stored at −20° C. for activity assays.
The test compounds were serially diluted in DMSO using two-fold dilutions to stock concentrations ranging typically from 200 μM to 1.6 μM (final concentrations in the assay range from 4 μM to 0.032 μM). 96-well assay isoplates (Wallac Inc., Atlanta, Ga., U.S.A.) were loaded with 50 μL dilution buffer per well (dilution buffer: 50 mM Tris/HCl pH 7.5, 8.3 mM MgCl2, 1.7 mM EDTA, 0.2% BSA). 2 μL of the serially diluted individual test compounds were added to individual wells,m followed by 25 μL of a 1:25,000 dilution of crude recombinant PDE 10a-containing Sf9 cell lysate (diluted in dilution buffer described above). The enzymatic assay was initiated by addition of 25 μL (0.025 μCi) ^3H cyclic AMP tracer [5′,8-^3H] adenosine 3′,5′-cyclic phosphate (Amersham Pharmacia Biotech., Piscataway, N.J., U.S.A.) that was diluted 1:1000 in assay buffer (assay buffer: 50 mM Tris/HCl pH 7.5, 8.3 mM MgCl2, 1.7 mM EDTA). Reactions were incubated at room temperature for 60 minutes and terminated by addition of 25 μL of 18 mg/mL Yttrium Scintillation Proximity Beads (Amersham Pharmacia Biotech., Piscataway, N.J., U.S.A.). Plates were sealed and incubated at room temperature for 60 minutes. Plates were read for 30 seconds/well using a Microbeta counter (Wallac Inc., Atlanta, Ga., U.S.A.). The IC50 values were determined by plotting compound concentration versus percent inhibition.

[2] = test system: MDA-MB-231 human breast carcinoma cells; experiment: In vitro proliferation inhibition assay (LDH activity, 72 hours); assay type: cell-based; details: MDA-MB-231 cells, read-out: % inhibition at a concentration of 10 μM
Description: MDA-MB-231 human breast carcinoma cells (ATCC # HTB26) were cultured in standard growth medium (DMEM), supplemented with 10% heat-inactivated FBS, 10 mM HEPES, 2 mM glutamine, 100 U/mL penicillin, and 100 μg/mL streptomycin) at 37° C. in 5% CO2 (vol/vol) in a humidified incubator. Cells were plated at a density of 3000 cells per well in 100 μL growth medium in a 96 well culture dish. 24 hours after plating, LDH activity was determined using the Cytotox 96 Non-radioactive Cytotoxicity Kit (Promega, Madison, Wis., U.S.A.) to yield T0h LDH values. Briefly, cells were lysed with the addition of 200 μL of Lysis Buffer (included in the Promega Kit) and lysates were further diluted 1:50 in Lysis Buffer. 50 μL of diluted cell lysate were transferred to a fresh 96 well culture plate. The assay was initiated with the addition of 50 μL of substrate per well. Color development was allowed to proceed for 10-15 minutes. The assay was terminated with the addition of 50 μL of Stop Solution (included in Promega kit). Optical densities were determined spectrophotometrically at 490 nm in a 96 well plate reader (SpectraMax 250, Molecular Devices, Sunnyvale, Calif., U.S.A.).
Test compounds were dissolved in 100% DMSO to prepare 10 mM stocks. Stocks were further diluted 1:250 in growth medium to yield working stocks of 40 μM test compound in 0.4% DMSO. Test compounds were serially diluted in growth medium containing 0.4% DMSO to maintain constant DMSO concentrations for all wells. 50 μL of fresh growth medium and 50 μL of diluted test compound were added to each culture well to give a final volume of 200 μL. The cells with and without individual test compounds were incubated for 72 hours at which time LDH activity was measured to yield T72h values. Optionally, the IC50 values can be determined with a least squares analysis program using compound concentration versus percent inhibition. % Inhibition=[1−(T72h test−T0h)/(T72h ctrl−T0h)]×100 wherein • T72h test=LDH activity at 72 hours in the presence of test compound, • T72h ctrl=LDH activity at 72 hours in the absence of test compound and • T0h=LDH activity at Time Zero

Row | IC50 ([1]; Examples of part a (Table 1a)) | IC50 ([1]; Examples of part b (Table 1b)) | Structure (SMILES) | inhibition at 10 µM ([2]; Examples of part a (Table 2a)) | inhibition at 10 µM ([2]; Examples of part b (Table 2b))
1 | 42 nM | – | CCOC(=O)c1c(-c2cccc(N(C)C)c2)c(C)n2c1-c1cc(OC)c(OC)cc1CC2 [(part a) 10] | 93% | –
2 | – | 110 nM | CCOC(=O)c1c(-c2cc(O)cc(O)c2)c(C)n2c1-c1cc(OC)c(OC)cc1CC2 [(part b) 1] | – | 89%
3 | 110 nM | – | CCOC(=O)c1c(-c2cccc(N)c2)c(C)n2c1-c1cc(OC)c(OC)cc1CC2 [(part a) 28] | 93% | –
4 | 30 nM | – | CCOC(=O)c1c(-c2cc(C)c(O)c(C)c2)c(C)n2c1-c1cc(OC)c(OC)cc1CC2 [(part a) 1] | 93% | –
